Results taken from US12077503B2, “Substituted cyclic amides and their use as herbicides” (FMC CORPORATION, priority 2015, dated 2024).

Legend:
Format in all cases: in vivo
corn (Zea mays) [1] = assay: Test G Post-Emergence Protocol; conditions: Zea mays, post-emergence, 312 h; for plant injury at 15.625 g/ha: 15.625 g ai/ha, evaluated after 13 days (100=total damage to plant; 0=no damage to plant), read-out: Corn damage rating; for plant injury at 62.5 g/ha: 62.5 g ai/ha, read-out: Corn damage rating (100=total damage to plant; 0=no damage to plant); for plant injury at 62.5 g/ha / plant injury at 250 g/ha: evaluated after 13 days; for plant injury at 250 g/ha: 250 g ai/ha, read-out: damage to plant, Corn (100=total damage to plant; 0=no damage to plant)
Outline: (§1)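 Scores run 0 (no damage) to 100 (total damage) and were taken 13 days after spraying. Plants had been raised in pots for 8 days under glasshouse control (24/16 °C, 14 h photoperiod, 65% humidity) and then treated at 15.625, 62.5 or 250 g/ha.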

[2] = system: velvetleaf (Abutilon theophrasti); assay: Test G Post-Emergence Protocol; conditions: Abutilon theophrasti, post-emergence, 312 h; for pest or weed control at 15.625 g/ha: 15.625 g ai/ha, evaluated after 13 days (100=total damage to plant; 0=no damage to plant), read-out: Velvetleaf damage rating; for pest or weed control at 62.5 g/ha: 62.5 g ai/ha, read-out: Velvetleaf damage rating (100=total damage to plant; 0=no damage to plant); for pest or weed control at 62.5 g/ha / pest or weed control at 250 g/ha: evaluated after 13 days; for pest or weed control at 250 g/ha: 250 g ai/ha, read-out: damage to plant, Velvetleaf (100=total damage to plant; 0=no damage to plant)
Outline: as §1

[3] = system: giant foxtail (Setaria faberi); assay: Test G Post-Emergence Protocol; conditions: Setaria faberi, post-emergence, 312 h; for pest or weed control at 15.625 g/ha: 15.625 g ai/ha, evaluated after 13 days (100=total damage to plant; 0=no damage to plant), read-out: Foxtail, Giant damage rating; for pest or weed control at 62.5 g/ha: 62.5 g ai/ha, read-out: Foxtail, Giant damage rating (100=total damage to plant; 0=no damage to plant); for pest or weed control at 62.5 g/ha / pest or weed control at 250 g/ha: evaluated after 13 days; for pest or weed control at 250 g/ha: 250 g ai/ha, read-out: damage to plant, Foxtail, Giant (100=total damage to plant; 0=no damage to plant)
Outline: as §1

[4] = system: ivy-leaved morning glory (Ipomoea hederacea); assay: Test G Post-Emergence Protocol; conditions: Ipomoea, post-emergence, 312 h; for pest or weed control at 15.625 g/ha: 15.625 g ai/ha, evaluated after 13 days (100=total damage to plant; 0=no damage to plant), read-out: Morningglory, Ivy-leaved damage rating; for pest or weed control at 62.5 g/ha: 62.5 g ai/ha, read-out: Morningglory, Ivy-leaved damage rating (100=total damage to plant; 0=no damage to plant); for pest or weed control at 62.5 g/ha / pest or weed control at 250 g/ha: evaluated after 13 days; for pest or weed control at 250 g/ha: 250 g ai/ha, read-out: damage to plant, Morningglory, Ivy-leaved (100=total damage to plant; 0=no damage to plant)
Outline: as §1

[5] = system: redroot pigweed (Amaranthus retroflexus); assay: Test G Post-Emergence Protocol; conditions: Amaranthus retroflexus, post-emergence, 312 h; for pest or weed control at 15.625 g/ha: 15.625 g ai/ha, evaluated after 13 days (100=total damage to plant; 0=no damage to plant), read-out: Pigweed, Redroot damage rating; for pest or weed control at 62.5 g/ha: 62.5 g ai/ha, read-out: Pigweed, Redroot damage rating (100=total damage to plant; 0=no damage to plant); for pest or weed control at 62.5 g/ha / pest or weed control at 250 g/ha: evaluated after 13 days; for pest or weed control at 250 g/ha: 250 g ai/ha, read-out: damage to plant, Pigweed, Redroot (100=total damage to plant; 0=no damage to plant)
Outline: as §1

[6] = system: barnyardgrass (Echinochloa crus-galli); assay: Test G Post-Emergence Protocol; conditions: Echinochloa crus-galli, post-emergence, 312 h; for pest or weed control at 15.625 g/ha: 15.625 g ai/ha, evaluated after 13 days (100=total damage to plant; 0=no damage to plant), read-out: Barnyardgrass damage rating; for pest or weed control at 62.5 g/ha: 62.5 g ai/ha, read-out: Barnyardgrass damage rating (100=total damage to plant; 0=no damage to plant); for pest or weed control at 62.5 g/ha / pest or weed control at 250 g/ha: evaluated after 13 days; for pest or weed control at 250 g/ha: 250 g ai/ha, read-out: damage to plant, Barnyardgrass (100=total damage to plant; 0=no damage to plant)
Outline: as §1

corn (Zea mays) [7] = assay: Test G Pre-Emergence Protocol; conditions: Zea mays, pre-emergence, 312 h, evaluated after 13 days; for plant injury at 15.625 g/ha: 15.625 g ai/ha; for plant injury at 15.625 g/ha / plant injury at 250 g/ha: read-out: Corn damage rating (100=total damage to plant; 0=no damage to plant); for plant injury at 62.5 g/ha: 62.5 g ai/ha, 100=total damage to plant, 0=no damage to plant, read-out: plant damage rating, Corn; for plant injury at 250 g/ha: 250 g ai/ha
Outline: (§2)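 Glasshouse pre-emergence test: soil-sown seeds, sprayed after 1 d at 15.625, 62.5 or 250 g/ha. Conditions 24/16° C day/night, 14 h light, 65% humidity, watering twice daily. Rating 13 d post-spray (100 = total damage).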

[8] = system: velvetleaf (Abutilon theophrasti); assay: Test G Pre-Emergence Protocol; conditions: Abutilon theophrasti, pre-emergence, 312 h, evaluated after 13 days; for pest or weed control at 15.625 g/ha: 15.625 g ai/ha; for pest or weed control at 15.625 g/ha / pest or weed control at 250 g/ha: read-out: Velvetleaf damage rating (100=total damage to plant; 0=no damage to plant); for pest or weed control at 62.5 g/ha: 62.5 g ai/ha, 100=total damage to plant, 0=no damage to plant, read-out: plant damage rating, Velvetleaf; for pest or weed control at 250 g/ha: 250 g ai/ha
Outline: as §2

[9] = system: giant foxtail (Setaria faberi); assay: Test G Pre-Emergence Protocol; conditions: Setaria faberi, pre-emergence, 312 h, evaluated after 13 days; for pest or weed control at 15.625 g/ha: 15.625 g ai/ha; for pest or weed control at 15.625 g/ha / pest or weed control at 250 g/ha: read-out: Foxtail, Giant damage rating (100=total damage to plant; 0=no damage to plant); for pest or weed control at 62.5 g/ha: 62.5 g ai/ha, 100=total damage to plant, 0=no damage to plant, read-out: plant damage rating, Foxtail, Giant; for pest or weed control at 250 g/ha: 250 g ai/ha
Outline: as §2

[10] = system: ivy-leaved morning glory (Ipomoea hederacea); assay: Test G Pre-Emergence Protocol; conditions: Ipomoea, pre-emergence, 312 h, evaluated after 13 days; for pest or weed control at 62.5 g/ha: 62.5 g ai/ha, 100=total damage to plant, 0=no damage to plant, read-out: plant damage rating, Morningglory, Ivy-leaved; for pest or weed control at 250 g/ha: 250 g ai/ha, read-out: Morningglory, Ivy-leaved damage rating (100=total damage to plant; 0=no damage to plant)
Outline: as §2

[11] = system: redroot pigweed (Amaranthus retroflexus); assay: Test G Pre-Emergence Protocol; conditions: Amaranthus retroflexus, pre-emergence, 312 h, evaluated after 13 days; for pest or weed control at 15.625 g/ha: 15.625 g ai/ha; for pest or weed control at 15.625 g/ha / pest or weed control at 250 g/ha: read-out: Pigweed, Redroot damage rating (100=total damage to plant; 0=no damage to plant); for pest or weed control at 62.5 g/ha: 62.5 g ai/ha, 100=total damage to plant, 0=no damage to plant, read-out: plant damage rating, Pigweed, Redroot; for pest or weed control at 250 g/ha: 250 g ai/ha
Outline: as §2

[12] = system: barnyardgrass (Echinochloa crus-galli); assay: Test G Pre-Emergence Protocol; conditions: Echinochloa crus-galli, pre-emergence, 312 h, evaluated after 13 days; for pest or weed control at 15.625 g/ha: 15.625 g ai/ha, read-out: Barnyard grass damage rating (100=total damage to plant; 0=no damage to plant); for pest or weed control at 62.5 g/ha: 62.5 g ai/ha, 100=total damage to plant, 0=no damage to plant, read-out: plant damage rating, Barnyardgrass; for pest or weed control at 250 g/ha: 250 g ai/ha, read-out: Barnyardgrass damage rating (100=total damage to plant; 0=no damage to plant)
Outline: as §2

| Compound | plant injury at 15.625 g/ha (corn (Zea mays) [1]) [%] | plant injury at 62.5 g/ha (corn (Zea mays) [1]) [%] | plant injury at 250 g/ha (corn (Zea mays) [1]) [%] | pest or weed control at 15.625 g/ha [2] [%] | pest or weed control at 62.5 g/ha [2] [%] | pest or weed control at 250 g/ha [2] [%] | pest or weed control at 15.625 g/ha [3] [%] | pest or weed control at 62.5 g/ha [3] [%] | pest or weed control at 250 g/ha [3] [%] | pest or weed control at 15.625 g/ha [4] [%] | pest or weed control at 62.5 g/ha [4] [%] | pest or weed control at 250 g/ha [4] [%] | pest or weed control at 15.625 g/ha [5] [%] | pest or weed control at 62.5 g/ha [5] [%] | pest or weed control at 250 g/ha [5] [%] | pest or weed control at 15.625 g/ha [6] [%] | pest or weed control at 62.5 g/ha [6] [%] | pest or weed control at 250 g/ha [6] [%] | plant injury at 15.625 g/ha (corn (Zea mays) [7]) [%] | plant injury at 62.5 g/ha (corn (Zea mays) [7]) [%] | further results |
| --- | --- | --- | --- | --- | --- | --- | --- | --- | --- | --- | --- | --- | --- | --- | --- | --- | --- | --- | --- | --- | --- |
| C=CCc1c(Cl)cccc1NC(=O)[C@H]1C(=O)N(C)C[C@@H]1c1ccc(C(F)(F)F)cc1 (racemic) [Compound 1440] | 0 | 10 | 20 | 0 | 0 | 0 | 0 | 20 | 60 | 0 | 0 | 10 | 0 | 10 | 20 | 0 | 0 | 10 | 0 | 0 | plant injury at 250 g/ha (corn (Zea mays) [7]): 0%; pest or weed control at 15.625 g/ha [8]: 0%; pest or weed control at 62.5 g/ha [8]: 0%; pest or weed control at 250 g/ha [8]: 0%; pest or weed control at 15.625 g/ha [9]: 0%; pest or weed control at 62.5 g/ha [9]: 50%; pest or weed control at 250 g/ha [9]: 80%; pest or weed control at 15.625 g/ha ([10]; 15.625 g ai/ha, read-out: Morning-glory, Ivy-leaved damage rating (100=total damage to plant; 0=no damage to plant)): 0%; pest or weed control at 62.5 g/ha [10]: 0%; pest or weed control at 250 g/ha [10]: 0%; pest or weed control at 15.625 g/ha [11]: 0%; pest or weed control at 62.5 g/ha [11]: 0%; pest or weed control at 250 g/ha [11]: 0%; pest or weed control at 15.625 g/ha [12]: 0%; pest or weed control at 62.5 g/ha [12]: 10%; pest or weed control at 250 g/ha [12]: 40% |
| CN1C[C@@H](c2ccc(C(F)(F)F)cc2)[C@H](C(=O)Nc2cc(C(C)(C)C)[nH]n2)C1=O (racemic) [Compound 1545] | 0 | 0 | 0 | 0 | 0 | 0 | 0 | 0 | 0 | 0 | 0 | 0 | 0 | 0 | 0 | 0 | 0 | 0 | 0 | 0 | plant injury at 250 g/ha (corn (Zea mays) [7]): 0%; pest or weed control at 15.625 g/ha [8]: 0%; pest or weed control at 62.5 g/ha [8]: 0%; pest or weed control at 250 g/ha [8]: 0%; pest or weed control at 15.625 g/ha [9]: 0%; pest or weed control at 62.5 g/ha [9]: 0%; pest or weed control at 250 g/ha [9]: 0%; pest or weed control at 62.5 g/ha [10]: 0%; pest or weed control at 250 g/ha [10]: 0%; pest or weed control at 15.625 g/ha [11]: 0%; pest or weed control at 62.5 g/ha [11]: 0%; pest or weed control at 250 g/ha [11]: 0%; pest or weed control at 15.625 g/ha [12]: 0%; pest or weed control at 62.5 g/ha [12]: 0%; pest or weed control at 250 g/ha [12]: 0% |
